The subject of one test is U937 cells. Kind of test: MTT antiproliferative assay, U937. Particulars: Homo sapiens, U-937, 48 h, read-out: U937 IC50.
In a further test the test system is U266 cells. In words: MTT antiproliferative assay, U266. Particulars: Homo sapiens, U-266, 48 h, read-out: U266 IC50.
For the next test, the system named is HepG2 cells. Kind of test: MTT antiproliferative assay, HepG2. Particulars: Homo sapiens, HepG2, 48 h, read-out: HepG2 IC50.
Test [1] deals with HDACs (HeLa nucleus extract containing a mixture of HDAC isoforms). Kind of test: HDAC inhibitory assay with HeLa nucleus extract. The note with it: at the concentration of 1 µM.

Protocol for HepG2 cells: (§1) The stock solutions of tested compounds were diluted with culture medium. […] Then, the cells were treated with compound sample at various concentrations for 48 h. Afterward, 20 MTT working solution (5 mg/ml) was added to each well and incubated for another 4 h. After incubation, the medium formed from MTT was extracted by adding DMSO (200 µl). The optical density (OD) at 490 nm and 630 nm were measured by Universal Microplate Spectrophotometer. […] The IC50 values were calculated with Origin 7.5 software (Originlab Corporation, Northampton, MA), and standard deviations of the IC50 values were obtained through at least 3 independent experiments.
Protocol for U266 cells: as §1
To evaluate the antiproliferative activity of hydroxamic acid containing molecules, MTT assays were performed using U937, U266, and HepG2 cell lines.
Protocol for U937 cells: as §1

The IC50 is the concentration needed to halve the response being measured. `O=C(CCCc1cn(Cc2c(F)cccc2F)c2ccccc12)Nc1ccc(C(=O)NO)cc1` [Compound I10, 4-(4-(1-(2,6-Difluoro-benzyl)-1H-indol-3-yl)butanamido)-N-hydroxybenzamide]: the IC50 in the test on U937 cells turned out to be 0.63 ± 0.07 µM; in the test with U266 cells, 0.16 ± 0.07 µM; in the test on HepG2 cells, 3.39 ± 0.25 µM. Moreover, the “HDACs, percentage inhibition rate (PIR)” value in test [1] is reported as 79.10 ± 4.65%.

`CC(C)CNNC(=O)c1ccc(NC(=O)CCCc2c[nH]c3ccccc23)cc1` [Compound I1e4, 4-(1H-Indol-3-yl)-N-[4-(N′-isobutyl-hydrazinocarbonyl)-phenyl]-butyramide]: in the test on U266 cells, the IC50 turned out to be 16 ± 0.67 µM. Besides, the “HDACs, percentage inhibition rate (PIR)” value in test [1] was 7.16 ± 1.50%.

Regarding `CCCNNC(=O)c1ccc(NC(=O)CCCc2cn(CC)c3ccccc23)cc1` [Compound I3e2, 4-(1-Ethyl-1H-indol-3-yl)-N-[4-(N′-propyl-hydrazinocarbonyl)-phenyl]-butyramide], the IC50 in the test with U266 cells stood at 0.48 ± 0.1 µM. The “HDACs, percentage inhibition rate (PIR)” value in test [1] came to 36.51 ± 2.93%.

Turning to `CCCNNC(=O)c1ccc(NC(=O)CCCc2cn(Cc3ccccc3)c3ccccc23)cc1` [Compound I2e2, 4-(1-Benzyl-1H-indol-3-yl)-N-[4-(N′-propyl-hydrazinocarbonyl)-phenyl]-butyramide], in the test with U266 cells, the IC50 worked out at 1.11 ± 0.08 µM. Besides, in test [1] (1 µM), the “HDACs, percentage inhibition rate (PIR)” value stood at 57.46 ± 2.06%.

As to `O=C(CCCc1cn(Cc2ccccc2)c2ccccc12)Nc1ccc(C(=O)NO)cc1` [Compound I2, 4-(4-(1-benzyl-1H-indol-3-yl)butanamido)-N-hydroxybenzamide], the IC50 is 0.95 ± 0.04 µM in the test on U937 cells, 0.48 ± 0.09 µM in the test on U266 cells and 3.63 ± 0.26 µM in the test on HepG2 cells. For the same molecule, the “HDACs, percentage inhibition rate (PIR)” value in test [1] stood at 78.94 ± 3.41%.

On to `CCCCn1cc(CCCC(=O)Nc2ccc(C(=O)NO)cc2)c2ccccc21` [Compound I12, 4-(4-(1-Butyl-1H-indol-3-yl)butanamido)-N-hydroxybenzamide], for which the IC50 with U937 cells was 1.01 ± 0.03 µM; in the test on U266 cells it was 0.12 ± 0.02 µM; in the test with HepG2 cells, 5.76 ± 0.65 µM. In test [1], the “HDACs, percentage inhibition rate (PIR)” value amounted to 62.70 ± 1.63%.

As for `CCCCn1cc(CCCC(=O)Nc2ccc(C(=O)NNCCC)cc2)c2ccccc21` [Compound I12e2, 4-(1-Butyl-1H-indol-3-yl)-N-[4-(N′-propyl-hydrazinocarbonyl)-phenyl]-butyramide], the IC50 in the test with U266 cells was 1.28 ± 0.12 µM. Moreover, in test [1], the “HDACs, percentage inhibition rate (PIR)” value was found to be 39.73 ± 1.84%.

Take `CCNNC(=O)c1ccc(NC(=O)CCCc2c[nH]c3ccccc23)cc1` [Compound I1e1, N-[4-(N′-Ethyl-hydrazinocarbonyl)-phenyl]-4-(1H-indol-3-yl)-butyramide]: the IC50 in the test with U266 cells stood at 15.97 ± 0.14 µM. Further, the “HDACs, percentage inhibition rate (PIR)” value in test [1] is recorded as 50.60 ± 2.02%.

With `O=C(CCCc1cn(Cc2cc(C(F)(F)F)cc(C(F)(F)F)c2)c2ccccc12)Nc1ccc(C(=O)NO)cc1` [Compound I11, 4-(4-(1-(3,5-Bis-trifluoromethyl-benzyl)-1H-indol-3-yl)butanamido)-N-hydroxybenzamide], the IC50 in the test on U937 cells worked out at 4.58 ± 0.23 µM; in the test with U266 cells it was 0.74 ± 0.05 µM; with HepG2 cells, 4.76 ± 0.61 µM. The “HDACs, percentage inhibition rate (PIR)” value in test [1] came out at 52.24 ± 1.10%.

Turning to `CCCNNC(=O)c1ccc(NC(=O)CCCc2cn(Cc3c(F)cccc3F)c3ccccc23)cc1` [Compound I10e2, 4-[1-(2,6-Difluoro-benzyl)-1H-indol-3-yl]-N-[4-(N′-propyl-hydrazinocarbonyl)-phenyl]-butyramide], the IC50 with U266 cells was determined as 0.74 ± 0.05 µM. For the same molecule, in test [1], the “HDACs, percentage inhibition rate (PIR)” value was determined as 46.85 ± 2.06%.

As to `CCCCNNC(=O)c1ccc(NC(=O)CCCc2c[nH]c3ccccc23)cc1` [Compound I1e3, N-[4-(N′-Butyl-hydrazinocarbonyl)-phenyl]-4-(1H-indol-3-yl)-butyramide], the IC50 in the test with U266 cells amounted to 1.06 ± 0.05 µM. In addition, in test [1], the “HDACs, percentage inhibition rate (PIR)” value is on record as 30.47 ± 1.17%.

For the molecule `CCCCNNC(=O)c1ccc(NC(=O)CCCc2cn(C)c3ccccc23)cc1` [Compound I13e3, N-[4-(N′-Butyl-hydrazinocarbonyl)-phenyl]-4-(1-methyl-1H-indol-3-yl)-butyramide], the IC50 in the test on U266 cells came to 1.36 ± 0.06 µM. The “HDACs, percentage inhibition rate (PIR)” value in test [1] turned out to be 32.15 ± 1.03%.

With `CCn1cc(CCCC(=O)Nc2ccc(C(=O)NO)cc2)c2ccccc21` [Compound I3, 4-(4-(1-Ethyl-1H-indol-3-yl)butanamido)-N-hydroxybenzamide], the IC50 worked out at 0.94 ± 0.04 µM in the test with U937 cells, 0.24 ± 0.03 µM with U266 cells and 1.92 ± 0.05 µM with HepG2 cells. For the same molecule, in test [1], the “HDACs, percentage inhibition rate (PIR)” value is on record as 78.94 ± 2.34%.

On to `O=C(CCCc1cn(Cc2ccc(C(F)(F)F)cc2)c2ccccc12)Nc1ccc(C(=O)NO)cc1` [Compound I4, 4-(4-(1-(4-Trifluoromethyl-benzyl)-1H-indol-3-yl)butanamido)-N-hydroxybenzamide], for which the results for the IC50 in the test on U937 cells, in the test on U266 cells and in the test with HepG2 cells were 0.97 ± 0.04 µM, 0.96 ± 0.08 µM and 4.45 ± 0.25 µM, respectively. Also, the “HDACs, percentage inhibition rate (PIR)” value in test [1] is reported as 68.50 ± 1.22%.

Turning to `CCCCNNC(=O)c1ccc(NC(=O)CCCc2cn(Cc3ccccc3)c3ccccc23)cc1` [Compound I2e3, 4-(1-Benzyl-1H-indol-3-yl)-N-[4-(N′-butyl-hydrazinocarbonyl)-phenyl]-butyramide], the IC50 in the test on U266 cells stood at 1.71 ± 0.07 µM. In addition, in test [1], the “HDACs, percentage inhibition rate (PIR)” value is listed as 51.41 ± 2.78%.

`CCCCNNC(=O)c1ccc(NC(=O)CCCc2cn(CC)c3ccccc23)cc1` [Compound I3e3, N-[4-(N′-Butyl-hydrazinocarbonyl)-phenyl]-4-(1-ethyl-1H-indol-3-yl)-butyramide]: the IC50 with U266 cells was found to be 1.45 ± 0.1 µM. Besides, the “HDACs, percentage inhibition rate (PIR)” value in test [1] stood at 31.94 ± 1.51%.

On to `O=C(CCCc1cn(Cc2ccc(F)c(F)c2)c2ccccc12)Nc1ccc(C(=O)NO)cc1` [Compound I6, 4-(4-(1-(3,4-Difluoro-benzyl)-1H-indol-3-yl)butanamido)-N-hydroxybenzamide], for which the values for the IC50 with U937 cells, with U266 cells and in the test with HepG2 cells were 1.25 ± 0.21 µM, 0.82 ± 0.06 µM and 7.72 ± 0.34 µM, respectively. The “HDACs, percentage inhibition rate (PIR)” value in test [1] is reported as 16.14 ± 1.07%.

In the case of `CCCNNC(=O)c1ccc(NC(=O)CCCc2cn(Cc3cccc(F)c3)c3ccccc23)cc1` [Compound I7e2, 4-[1-(3-Fluoro-benzyl)-1H-indol-3-yl]-N-[4-(N′-propyl-hydrazinocarbonyl)-phenyl]-butyramide], the IC50 in the test on U266 cells amounted to 1.32 ± 0.08 µM. For the same molecule, the “HDACs, percentage inhibition rate (PIR)” value in test [1] was 30.45 ± 3.38%.

Take `O=C(CCCc1cn(Cc2ccccc2C(F)(F)F)c2ccccc12)Nc1ccc(C(=O)NO)cc1` [Compound I5, 4-(4-(1-(2-Trifluoromethyl-benzyl)-1H-indol-3-yl)butanamido)-N-hydroxybenzamide]: the values for the concentration for half-maximal inhibition (IC50) with U937 cells, with U266 cells and in the test with HepG2 cells were 4.42 ± 0.18 µM, 0.88 ± 0.07 µM and 6.17 ± 0.21 µM, respectively. Also, the “HDACs, percentage inhibition rate (PIR)” value in test [1] is 19.30 ± 1.60%.

Consider `CCCNNC(=O)c1ccc(NC(=O)CCCc2cn(C)c3ccccc23)cc1` [Compound I13e2, 4-(1-Methyl-1H-indol-3-yl)-N-[4-(N′-propyl-hydrazinocarbonyl)-phenyl]-butyramide], for which the IC50 in the test on U266 cells is 0.71 ± 0.11 µM. For the same molecule, the “HDACs, percentage inhibition rate (PIR)” value in test [1] is recorded as 29.68 ± 2.06%.

As to `CCCNNC(=O)c1ccc(NC(=O)CCCc2c[nH]c3ccccc23)cc1` [Compound I1e2, 4-(1H-Indol-3-yl)-N-[4-(N′-propyl-hydrazinocarbonyl)-phenyl]-butyramide], the IC50 in the test on U266 cells was 0.64 ± 0.02 µM. Besides, the “HDACs, percentage inhibition rate (PIR)” value in test [1] is on record as 61.34 ± 3.56%.

In the case of `CCCCNNC(=O)c1ccc(NC(=O)CCCc2cn(CCCC)c3ccccc23)cc1` [Compound I12e3, N-[4-(N′-Butyl-hydrazinocarbonyl)-phenyl]-4-(1-butyl-1H-indol-3-yl)-butyramide], in the test with U266 cells, the IC50 was 1.44 ± 0.31 µM. Besides, the “HDACs, percentage inhibition rate (PIR)” value in test [1] stood at 42.76 ± 1.56%.

For the molecule `O=C(CCCc1c[nH]c2ccccc12)Nc1ccc(C(=O)NO)cc1` [Compound I1, 4-(4-(1H-indol-3-yl)butanamido)-N-hydroxybenzamide], the IC50 in the test on U937 cells stood at 1.02 ± 0.13 µM; with U266 cells it was 0.84 ± 0.09 µM; with HepG2 cells, 8.98 ± 0.16 µM. Moreover, the “HDACs, percentage inhibition rate (PIR)” value in test [1] came out at 53.81 ± 1.60%.

`O=C(CCCc1cn(Cc2cccc(F)c2)c2ccccc12)Nc1ccc(C(=O)NO)cc1` [Compound I7, 4-(4-(1-(3-Fluoro-benzyl)-1H-indol-3-yl)butanamido)-N-hydroxybenzamide]: the IC50 with U937 cells stood at 0.95 ± 0.01 µM; with U266 cells it was 0.84 ± 0.06 µM; in the test on HepG2 cells, 4.87 ± 0.12 µM. Also, the “HDACs, percentage inhibition rate (PIR)” value in test [1] was found to be 46.17 ± 2.94%.

For `O=C(CCCc1cn(Cc2cccc(Cl)c2)c2ccccc12)Nc1ccc(C(=O)NO)cc1` [Compound I9, 4-(4-(1-(3-Chloro-benzyl)-1H-indol-3-yl)butanamido)-N-hydroxybenzamide], the IC50 stood at 1 ± 0.15 µM with U937 cells, 0.65 ± 0.04 µM in the test on U266 cells and 5.67 ± 0.06 µM in the test on HepG2 cells. Further, the “HDACs, percentage inhibition rate (PIR)” value in test [1] is recorded as 56.68 ± 2.42%.

As for `O=C(CCCc1cn(Cc2cccc(Br)c2)c2ccccc12)Nc1ccc(C(=O)NO)cc1` [Compound I8, 4-(4-(1-(3-Bromo-benzyl)-1H-indol-3-yl)butanamido)-N-hydroxybenzamide], the IC50 worked out at 1.94 ± 0.17 µM in the test with U937 cells, 0.71 ± 0.06 µM in the test on U266 cells and 6.45 ± 0.28 µM in the test with HepG2 cells. The “HDACs, percentage inhibition rate (PIR)” value in test [1] worked out at 15.87 ± 3.27%.

(Values after article PMC7822065, “Discovery of indole-3-butyric acid derivatives as potent histone deacetylase inhibitors” (Journal of Enzyme Inhibition and Medicinal Chemistry, 2021).)
